These results are taken from publication PMC7023381, “Sulfonamide Inhibition Profile of the β-Carbonic Anhydrase from Malassezia restricta, An Opportunistic Pathogen Triggering Scalp Conditions” (Metabolites, 2020).

Molecules are shown by their SMILES.

For the first assay, the target named is T1, MreCA (Malassezia restricta, UniProt A0A3G2S4B9).
T1 construct: gene can; recombinant from synthetic gene in pET100D-Topo, E. coli BL21(DE3) codon plus; N-terminal His6-tag fusion, 27 kDa on SDS-PAGE; no tag cleavage told
T1 sequence (A0A3G2S4B9 1-238): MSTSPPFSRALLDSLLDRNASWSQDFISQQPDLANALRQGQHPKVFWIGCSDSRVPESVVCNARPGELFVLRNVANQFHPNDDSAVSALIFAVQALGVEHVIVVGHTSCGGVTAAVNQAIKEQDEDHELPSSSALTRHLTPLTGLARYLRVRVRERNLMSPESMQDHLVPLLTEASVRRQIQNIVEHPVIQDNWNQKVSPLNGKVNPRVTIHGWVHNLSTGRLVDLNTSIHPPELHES
Nature of the assay: stopped-flow CO2 hydrase assay.
Conditions: not given
Type of assay: biochemical.
For the compound `NCCc1ccc(S(N)(=O)=O)cc1` [compound 6, 6], the Ki is greater than 10 µM.

Staying with this assay, now noted: read-out: MreCA.
With `CCN[C@H]1CN(CCCOC)S(=O)(=O)c2sc(S(N)(=O)=O)cc21` [BRZ], the Ki was found to be 0.7 µM.

On to `NS(=O)(=O)c1nnc(NS(=O)(=O)c2ccccc2)s1` [BZA], for which the Ki is 7.15 µM. On the same count and under the same terms, the value for `Cc1ccc(-c2cc(C(F)(F)F)nn2-c2ccc(S(N)(=O)=O)cc2)cc1` [CLX] was 1.4 µM; that for `NS(=O)(=O)c1cc(Cl)c(Cl)c(S(N)(=O)=O)c1` [DCP] was 3.06 µM. The same measure, in the same setting: the value for `NC(N)=Nc1nc(CSCCC(N)=NS(N)(=O)=O)cs1` [FAM] was greater than 10 µM; that for `NS(=O)(=O)c1cc2c(cc1Cl)NCNS2(=O)=O` [HCT] was 8.5 µM.

For the compound `NS(=O)(=O)c1ccc(S(=O)(=O)Nc2cccc3c(Cl)c[nH]c23)cc1` [IND], the Ki was found to be 0.87 µM. `CC(=O)N=c1sc(S(N)(=O)=O)nn1C` [MZA]: the Ki was determined as 3.9 µM. Regarding `O=C1NS(=O)(=O)c2ccccc21` [SAC], the Ki worked out at 6.2 µM. On the same count and under the same terms, with `CCN1CCCC1CNC(=O)c1cc(S(N)(=O)=O)ccc1OC` (stereo not drawn) [SLP] the figure was 4.85 µM; with `NS(=O)(=O)c1ccc(N2CCCCS2(=O)=O)cc1` [SLT], 0.67 µM. Still for that read-out and setting: with `CC1(C)O[C@@H]2[C@@H](CO[C@@]3(COS(N)(=O)=O)OC(C)(C)O[C@@H]23)O1` [TPM] the figure was 3.83 µM; with `Cc1onc(-c2ccccc2)c1-c1ccc(S(N)(=O)=O)cc1` [VLX], 0.77 µM. On the same count and under the same terms, with `NS(=O)(=O)Cc1noc2ccccc12` [ZNS] the figure was greater than 10 µM. In the case of `Nc1ccc(S(N)(=O)=O)cc1` [compound 2, 2], the Ki was found to be 4.62 µM.

With `NS(=O)(=O)c1cccc(S(N)(=O)=O)c1` [compound 3, 3], the Ki was greater than 10 µM. In the case of `Cc1ccc(S(N)(=O)=O)cc1` [compound 4, 4], the Ki came out at 4.04 µM. Turning to `NCc1ccc(S(N)(=O)=O)cc1` [compound 5, 5], the Ki is greater than 10 µM. Same read-out and setting: with `Nc1ccc(S(N)(=O)=O)cc1F` [compound 7, 7] the figure was 4.59 µM.

As to `Nc1ccc(S(N)(=O)=O)cc1Cl` [compound 8, 8], the Ki was greater than 10 µM. As to `Nc1ccc(S(N)(=O)=O)cc1Br` [compound 9, 9], the Ki is greater than 10 µM. The same measure, in the same setting: the value for `NS(=O)(=O)c1cc(Cl)cc(Cl)c1O` [compound 10, 10] was greater than 10 µM; that for `Nc1cc(C(F)(F)F)c(S(N)(=O)=O)cc1S(N)(=O)=O` [compound 11, 11] was 6.76 µM. On the same count and under the same terms, the value for `Nc1cc(Cl)c(S(N)(=O)=O)cc1S(N)(=O)=O` [compound 12, 12] was greater than 10 µM.

Consider `Nc1nnc(S(N)(=O)=O)s1` [compound 13, 13], for which the Ki is greater than 10 µM.

As to `Cn1nc(S(N)(=O)=O)sc1=N` [compound 14, 14], the Ki is greater than 10 µM. Still for that read-out and setting: the value for `NS(=O)(=O)c1ccc(O)cc1` [compound 15, 15] was greater than 10 µM; that for `NS(=O)(=O)c1ccc(CO)cc1` [compound 16, 16] was 6.51 µM; that for `NS(=O)(=O)c1ccc(CCO)cc1` [compound 17, 17] was greater than 10 µM. On to `NS(=O)(=O)c1ccc(C(=O)O)cc1` [compound 18, 18], for which the Ki is greater than 10 µM. `Nc1nccc(Nc2ccc(S(N)(=O)=O)cc2)n1` [compound 19, 19]: the Ki was 7.79 µM. On the same count and under the same terms, the value for `Nc1ccc(S(=O)(=O)Nc2nnc(S(N)(=O)=O)s2)cc1` [compound 20, 20] was 0.91 µM; that for `Nc1ccc(S(=O)(=O)Nc2ccc(S(N)(=O)=O)cc2)cc1` [compound 22, 22] was 3.74 µM; that for `Nc1ccc(S(=O)(=O)NCc2ccc(S(N)(=O)=O)cc2)cc1` [compound 23, 23] was greater than 10 µM. The same measure, in the same setting: the value for `Nc1ccc(S(=O)(=O)NCCc2ccc(S(N)(=O)=O)cc2)cc1` [compound 24, 24] was greater than 10 µM.
